The text below walks through data of US20140148422A1, “TREATMENT OF GLUCOSE INTOLERANCE” (AtheroNova Operations, Inc., priority 2009, published 2014).

“And” between values parts separate entries of the source, which are not always exact repeats. Identical values can stand only once. “Also recorded” adds a separate entry of the source. Like-named read-outs stand apart in the source and are kept apart here.

For data set [1] the following is noted: drug compared with placebo; cited from earlier work.
The conditions of data set [2]: wild-type mice provided dietary HDCA; cited from earlier work.
In the next data set the test system is Fat Metabolism In Human. Put plainly: Ketonuria in an individual taking oral HDCA (weekly Ketostix testing). Format: in vivo. Particulars: 250 mg orally three times a day (750 mg/day), 10 weeks, no caloric restriction, one individual. From the text:
(§1) It is know in the art that when hyodeoxycholic acid (a hydrophilic bile acid) is taken orally, it is absorbed through the gut and reaches the liver, but then a large fraction of it, up to 70%, escapes the entero-hepatic circulation, and enters the systemic circulation. See Salvioli et al., European Journal of Clinical Investigation, Vol. 18(1), pp. 22-28 (February 1988). Therefore, the induction of ketonuria is an indication that HDCA upon becoming bioavailable the systemic circulation is able to induce dissolution of the body fat.
(§2) Considering that about 70% of HDCA escapes the entero-hepatic pathway and enters into the systemic blood circulation, the 750 mg/day dose of HDCA averages to concentration of about 270 μM in the blood of an average adult person weighing 70 kg, as compared to normal levels of bile salts in the blood which are less than 10 μM. Some embodiments described herein are effective to mimic the high levels of bile salts observed as safe in Example 2, and in so doing are effective to result in the treatment of obesity.
An in vivo experiment was performed to assess the effectiveness of HDCA in causing fat catabolism and treating obesity in human. In this experiment, an overweight individual otherwise healthy took 250 mg of HDCA three times a day (750 mg/day) for a period of 10 weeks without caloric restriction.

A short description of data set [3]: Escape of oral HDCA from the entero-hepatic circulation into the systemic circulation. Conditions: 750 mg/day dose, average adult person weighing 70 kg, assuming about 70% enters systemic circulation. Format: in vivo, human.
From the text: as §1, §2

In the next data set the test system is Fat Metabolism in Mice. Put plainly: Determination of ketonuria in mice (urine ketone bodies, Ketostix strips). The format is in vivo. Also on record: key to Ketone level: —: No detectable levels of Ketone in the urine; Trace amount of Ketone (6 mg/dL) in the urine; Small amount of Ketone (15 mg/dL) in the urine. Particulars: week 23; for Ketone level: urine of individual mice; for Average Ketone levels: urine. Here is the method: In a preliminary in vivo experiment, four groups of mice (each group including three or four mice of same genetic background) were tested for levels of ketone bodies in their urine after consumption of the high fat and/or high cholesterol rodent chow diet supplemented with or without at least on biocompatible emulsifier. In this study, all mice in all groups (all being eight weeks old when this study commenced) were fed with high fat/high cholesterol chow diet (Catalog No. 12079B from Research Diets) for eight weeks. Starting at week 9, the diet of all mice was switched to low fat chow (AIN-76A Rodent Diet from Research Diets). For 15 weeks thereafter, the control mice of group A were fed with pure low fat chow while the mice in treated groups, B, C and D, were fed with low fat chow supplemented with at least one biocompatible emulsifier as follow: Group B mice were fed with low fat chow supplemented with 0.5% Hyodeoxycholic acid (HDCA) and 1.25% D-Limonene (DLM). Group C mice were fed with low fat chow supplemented with 5% DLM. Group D mice were fed with low fat chow supplemented with 1.25% HDCA.
At week 23 of the experiment, urine samples from each mice were taken and analyzed for ketone body levels using Ketostix® stips.

Data set [4] relates to C57BL/6 LDL r-KO knockout mice. Conditions: HDCA fed, relative to mice not provided HDCA; cited from earlier work.
The conditions of data set [5]: taken orally, cited from earlier work.
Where [6] appears, read: low fat chow + 1.25% HDCA (Group D).
[7] abbreviates: low fat chow + 5% DLM (Group C).

For `CCN[C@@H](C)Cc1cccc(C(F)(F)F)c1` [dexfenfluramine], in data set [1], the Weight loss entry is given as “about 5 % of body weight”.

As for `CCCCCCCCCCC[C@@H](C[C@@H]1OC(=O)[C@H]1CCCCCC)OC(=O)[C@H](CC(C)C)NC=O` [orlistat], in data set [1], the Weight loss entry was “about 5 % of body weight”.

As for `C[C@H](CCC(=O)O)[C@H]1CC[C@H]2[C@@H]3C[C@H](O)[C@@H]4C[C@H](O)CC[C@]4(C)[C@H]3CC[C@]12C` [HDCA, hyodeoxycholic acid], in data set [2], the Plasma levels entry was “up to 50 μM”. Also, the “Ketonuria / ketotic state” value with Fat Metabolism In Human is listed as “mild ketonuria; also recorded: mild ketotic state”. Besides, the “Average concentration in the blood” value in data set [3] was “about 270 μM”. In the data set on Fat Metabolism in Mice (setting [6]), the Ketone level entry was “— and T (Trace amount of Ketone (6 mg/dL) in the urine) and S (Small amount of Ketone (15 mg/dL) in the urine)”; the “Average Ketone levels” value is recorded as 100. The “Rate of formation of atherosclerotic plaque” value in data set [4] is recorded as “reduced rate of formation of atherosclerotic plaque”. For the same compound, in data set [5], the “Fraction escaping the entero-hepatic circulation and entering the systemic circulation” value was “about 70%”. Further, the “Fraction escaping the entero-hepatic circulation and entering the systemic circulation” value in data set [5] (listed as hyodeoxycholic acid) was “up to 70%”.

With `CC(C)CC(N(C)C)C1(c2ccc(Cl)cc2)CCC1` (centres unmarked) [sibutramine], in data set [1], the Weight loss entry is “about 5 % of body weight”.

On to `C=C(C)[C@H]1CC=C(C)CC1` [DLM, D-Limonene], for which, in the data set on Fat Metabolism in Mice (setting [7]), the Ketone level entry is “— and T (Trace amount of Ketone (6 mg/dL) in the urine) (2×) and S (Small amount of Ketone (15 mg/dL) in the urine)”; the “Average Ketone levels” value was 42.

In the case of `CC(C)(N)Cc1ccccc1` [phentermine], in data set [1], the Weight loss entry was “about 5 % of body weight”.
